Measured values published in the NIST ThermoML archive (doi:10.1016/j.jct.2016.09.022).
± gives the expanded uncertainty stated by the source.

How the values were obtained:
[1] = refractive index (Na D-line) (dimensionless); details: 298.15 K; 101.33 kPa; Liquid; Standard Abbe refractometry
[2] = Liquid; for speed of sound: Frequency=1.5 MHz, Single path-length method; for mass density: 298.15 K, 101.33 kPa, Vibrating tube method

CCCO [propan-1-ol]
Details | mass density [kg/m3] | refractive index
[1] | – | 1.383 ± 0.0028
[2] | 799.5 ± 1.6 | –

speed of sound [m/s], [2]
Details | 283.15 K | 293.15 K | 303.15 K | 313.15 K | 323.15 K | 333.15 K | 343.15 K
100 kPa | 1260.3 ± 2.5 | 1223.5 ± 2.5 | 1189.2 ± 2.4 | 1155.3 ± 2.4 | 1121.7 ± 2.3 | 1088.3 ± 2.2 | 1054.4 ± 2.1
5100 kPa | 1287.8 ± 2.8 | 1252.2 ± 2.8 | 1219.6 ± 2.7 | 1186.7 ± 2.7 | 1153.8 ± 2.6 | 1122.2 ± 2.6 | 1090.2 ± 2.6
10100 kPa | 1313.7 ± 2.8 | 1279.6 ± 2.8 | 1248.2 ± 2.7 | 1216.4 ± 2.7 | 1184.6 ± 2.7 | 1153.7 ± 2.6 | 1123.4 ± 2.6
20100 kPa | 1362.3 ± 2.9 | 1330 ± 2.9 | 1300.9 ± 2.8 | 1271.4 ± 2.8 | 1241.7 ± 2.7 | 1212.8 ± 2.7 | 1183.9 ± 2.7
30100 kPa | 1407.9 ± 3 | 1377 ± 2.9 | 1349.1 ± 2.9 | 1320.6 ± 2.8 | 1293 ± 2.8 | 1265.9 ± 2.8 | 1239.2 ± 2.7
40100 kPa | 1450.3 ± 3 | 1420.8 ± 3 | 1394.3 ± 2.9 | 1366.8 ± 2.9 | 1340.2 ± 2.9 | 1314.2 ± 2.8 | 1289.2 ± 2.8
50100 kPa | 1490.2 ± 3.1 | 1461.7 ± 3 | 1436.6 ± 3 | 1410.1 ± 3 | 1384.6 ± 2.9 | 1359.7 ± 2.9 | 1335.5 ± 2.8
60100 kPa | 1527.4 ± 3.2 | 1500.3 ± 3.1 | 1476.2 ± 3.1 | 1450.6 ± 3 | 1426.4 ± 3 | 1402.2 ± 2.9 | 1379 ± 2.9
70100 kPa | 1563.2 ± 3.2 | 1537.2 ± 3.2 | 1513.7 ± 3.1 | 1489.5 ± 3.1 | 1465.1 ± 3 | 1441.9 ± 3 | 1419.9 ± 3
80100 kPa | 1597.2 ± 3.3 | 1572.1 ± 3.2 | 1549.5 ± 3.2 | 1525.9 ± 3.1 | 1502.3 ± 3.1 | 1479.3 ± 3.1 | 1458.2 ± 3
90100 kPa | 1630 ± 3.3 | 1605.3 ± 3.3 | 1583.6 ± 3.2 | 1560.4 ± 3.2 | 1537.5 ± 3.2 | 1515.2 ± 3.1 | 1497.2 ± 3.1
95100 kPa | 1645.7 ± 3.4 | 1621.6 ± 3.3 | 1600.1 ± 3.3 | 1577.2 ± 3.2 | 1554.4 ± 3.2 | 1532.6 ± 3.2 | 1512.2 ± 3.1

CO [methanol]
Details | mass density [kg/m3] | refractive index
[1] | – | 1.3263 ± 0.0027
[2] | 786.5 ± 1.6 | –

speed of sound [m/s], [2]
Details | 283.15 K | 293.15 K | 303.15 K | 313.15 K | 323.15 K | 333.15 K | 343.15 K
100 kPa | 1154.3 ± 2.3 | 1120.6 ± 2.3 | 1087.4 ± 2.2 | 1054.5 ± 2.1 | 1022 ± 2.1 | 989.77 ± 2 | –
120 kPa | – | – | – | – | – | – | 957.61 ± 1.9
5100 kPa | 1182 ± 2.6 | 1149.2 ± 2.6 | 1118 ± 2.5 | 1087 ± 2.5 | 1055.8 ± 2.5 | 1025.2 ± 2.5 | 994.42 ± 2.5
10100 kPa | 1209.3 ± 2.6 | 1176.2 ± 2.6 | 1146.4 ± 2.5 | 1116.8 ± 2.5 | 1087.2 ± 2.5 | 1058 ± 2.4 | 1028.6 ± 2.4
20100 kPa | 1258.7 ± 2.7 | 1227.4 ± 2.6 | 1199.4 ± 2.6 | 1171.1 ± 2.6 | 1143.8 ± 2.5 | 1117.2 ± 2.5 | 1090.6 ± 2.5
30100 kPa | 1303.6 ± 2.8 | 1274.2 ± 2.7 | 1248.1 ± 2.7 | 1221.5 ± 2.6 | 1195.3 ± 2.6 | 1169.8 ± 2.5 | 1144.9 ± 2.5
40100 kPa | 1345.2 ± 2.8 | 1316.8 ± 2.8 | 1292.5 ± 2.7 | 1267.3 ± 2.7 | 1242.7 ± 2.6 | 1218.6 ± 2.6 | 1194.9 ± 2.6
50100 kPa | 1384.4 ± 2.9 | 1357 ± 2.8 | 1333.7 ± 2.8 | 1309.7 ± 2.8 | 1286.3 ± 2.7 | 1263.6 ± 2.7 | 1241 ± 2.6
60100 kPa | 1421 ± 2.9 | 1394.9 ± 2.9 | 1372.8 ± 2.9 | 1349.4 ± 2.8 | 1326.6 ± 2.8 | 1304.8 ± 2.7 | 1283.5 ± 2.7
70100 kPa | 1456.2 ± 3 | 1430.8 ± 3 | 1409.7 ± 2.9 | 1387.1 ± 2.9 | 1365 ± 2.8 | 1343.6 ± 2.8 | 1323.1 ± 2.8
80100 kPa | 1489.1 ± 3 | 1464.7 ± 3 | 1444.6 ± 3 | 1422.7 ± 2.9 | 1401.3 ± 2.9 | 1380.8 ± 2.9 | 1361.1 ± 2.8
90100 kPa | 1520.7 ± 3.1 | 1496.7 ± 3.1 | 1477.7 ± 3 | 1456.3 ± 3 | 1435.9 ± 3 | 1415.9 ± 2.9 | 1396.8 ± 2.9
95100 kPa | 1536 ± 3.1 | 1512.3 ± 3.1 | 1493.8 ± 3 | 1472.6 ± 3 | 1452.3 ± 3 | 1432.7 ± 3 | 1414 ± 2.9
